The text below walks through data of patent US9951065B2 (Gilead Sciences, Inc., priority 2015, dated 2018).

By EC50 is commonly meant the concentration at which the effect is half-maximal.

T1 sequence (P14902 whole entry): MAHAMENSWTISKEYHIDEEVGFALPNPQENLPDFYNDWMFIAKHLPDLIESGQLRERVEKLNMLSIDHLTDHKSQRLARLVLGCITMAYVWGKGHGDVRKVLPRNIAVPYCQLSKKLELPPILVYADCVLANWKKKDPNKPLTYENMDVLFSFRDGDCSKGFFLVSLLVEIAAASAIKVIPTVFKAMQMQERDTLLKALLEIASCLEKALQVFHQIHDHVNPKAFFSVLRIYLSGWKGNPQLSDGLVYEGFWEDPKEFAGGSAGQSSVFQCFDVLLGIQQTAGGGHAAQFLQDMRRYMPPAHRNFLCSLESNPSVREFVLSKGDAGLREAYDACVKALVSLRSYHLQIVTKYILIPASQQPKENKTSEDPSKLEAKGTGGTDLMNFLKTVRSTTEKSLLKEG

This assay has as its target T1, IDO1 (Homo sapiens, UniProt P14902).
T1 construct: HeLa cells were treated with a test compound in the presence of IFNγ, which induces IDO1 expression; host or cells: H1-HeLa cells, IDO1 induced with IFNγ
Put plainly: Cell-based (HeLa) assay for measurement of IDO1 inhibition (kynurenine levels in supernatant after IFNγ induction). The conditions noted are these: HeLa cells, IFNγ-induced IDO1, kynurenine in supernatant after 48 hour incubation; geometric mean of a minimum of four determinations. The procedure, abridged:
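HeLa cells, 1,250 per well, treated with compound (0.5% DMSO final) plus IFNγ to induce IDO1, for 48 h. Supernatant kynurenine measured by TCA hydrolysis at 60 °C, then p-dimethylaminobenzaldehyde, absorbance 480 nm. EC50 from a four-parameter fit normalized to −/+IFNγ controls; geometric mean of at least four runs.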
With `O/N=C(\Nc1ccc(F)c(Cl)c1)c1ccnc2nc(C(O)C3CC3)[nH]c12` (centres unmarked) [Example 174, N-(3-Chloro-4-fluorophenyl)-2-(cyclopropyl(hydroxy)methyl)-N′-hydroxy-1H-imidazo[4,5-b]pyridine-7-carboximidamide], the EC50 worked out at 7090 nM.

In the case of `CC(C)(O)c1nc2nccc(/C(=N/O)Nc3ccc(F)c(Cl)c3)c2[nH]1` [Example 175, N-(3-Chloro-4-fluorophenyl)-N′-hydroxy-2-(2-hydroxypropan-2-yl)-1H-imidazo[4,5-b]pyridine-7-carboximidamide], it took 6420 nM to reach a half-maximal effect (EC50). On to `O/N=C(\Nc1ccc(F)c(Cl)c1)c1ccnc2nc(C(O)C(F)(F)F)[nH]c12` (centres unmarked) [Example 176, N-(3-Chloro-4-fluorophenyl)-N′-hydroxy-2-(2,2,2-trifluoro-1-hydroxyethyl)-1H-imidazo[4,5-b]pyridine-7-carboximidamide], for which it took 4200 nM to reach a half-maximal effect (EC50). On to `OCc1nc2nccc(/C(=N/O)Nc3ccc(F)c(Cl)c3)c2[nH]1` [Example 177, N-(3-Chloro-4-fluorophenyl)-N′-hydroxy-2-(hydroxymethyl)-1H-imidazo[4,5-b]pyridine-7-carboximidamide], for which it took 1670 nM to reach a half-maximal effect (EC50).

Compound `CNCc1nc2nccc(/C(=N/O)Nc3ccc(F)c(Cl)c3)c2[nH]1` [Example 178, N-(3-Chloro-4-fluorophenyl)-N′-hydroxy-2-((methylamino)methyl)-1H-imidazo[4,5-b]pyridine-7-carboximidamide] displayed an EC50 of 1480 nM. The compound `NCc1nc2nccc(/C(=N/O)Nc3ccc(F)c(Cl)c3)c2[nH]1` [Example 179, 2-(Aminomethyl)-N-(3-chloro-4-fluorophenyl)-N′-hydroxy-1H-imidazo[4,5-b]pyridine-7-carboximidamide] had a concentration giving a half-maximal response (EC50) of 7660 nM. `O=S(=O)(NCc1nc2nccc(/C(=N/O)Nc3ccc(F)c(Cl)c3)c2[nH]1)c1ccccc1` [Example 180, N-(3-Chloro-4-fluorophenyl)-N′-hydroxy-2-(phenylsulfonamidomethyl)-1H-imidazo[4,5-b]pyridine-7-carboximidamide] displayed an EC50 of 1410 nM. On to `CS(=O)(=O)NCc1nc2nccc(/C(=N/O)Nc3ccc(F)c(Cl)c3)c2[nH]1` [Example 181, N-(3-Chloro-4-fluorophenyl)-N′-hydroxy-2-(methylsulfonamidomethyl)-1H-imidazo[4,5-b]pyridine-7-carboximidamide], for which it took 8970 nM to reach a half-maximal effect (EC50). For the compound `O/N=C(\Nc1ccc(F)c(Cl)c1)c1ccnc2nc(CNc3ncccn3)[nH]c12` [Example 182, N-(3-Chloro-4-fluorophenyl)-N′-hydroxy-2-((pyrimidin-2-ylamino)methyl)-1H-imidazo[4,5-b]pyridine-7-carboximidamide], the EC50 is 6400 nM.

As to `OCCc1nc2nccc(/C(=N/O)Nc3ccc(F)c(Cl)c3)c2[nH]1` [Example 183, N-(3-Chloro-4-fluorophenyl)-N′-hydroxy-2-(2-hydroxyethyl)-1H-imidazo[4,5-b]pyridine-7-carboximidamide], the midpoint of the response, the EC50, lay at 2400 nM. Regarding `CN(C)CCc1nc2nccc(/C(=N/O)Nc3ccc(F)c(Cl)c3)c2[nH]1` [Example 184, N-(3-Chloro-4-fluorophenyl)-2-(2-(dimethylamino)ethyl)-N′-hydroxy-1H-imidazo[4,5-b]pyridine-7-carboximidamide], the EC50 is 593 nM.

`CCN(CC)CCc1nc2nccc(/C(=N/O)Nc3ccc(F)c(Cl)c3)c2[nH]1` [Example 185, N-(3-Chloro-4-fluorophenyl)-2-(2-(diethylamino)ethyl)-N′-hydroxy-1H-imidazo[4,5-b]pyridine-7-carboximidamide]: the response was half-maximal at 531 nM (EC50). Take `CN(CCc1nc2nccc(/C(=N/O)Nc3ccc(F)c(Cl)c3)c2[nH]1)CC1CC1` [Example 186, N-(3-Chloro-4-fluorophenyl)-2-(2-((cyclopropylmethyl)(methyl)amino)ethyl)-N′-hydroxy-1H-imidazo[4,5-b]pyridine-7-carboximidamide]: the EC50 turned out to be 565 nM. In the case of `CN(CCc1nc2nccc(/C(=N/O)Nc3ccc(F)c(Cl)c3)c2[nH]1)CC(F)F` [Example 187, N-(3-Chloro-4-fluorophenyl)-2-(2-((2,2-difluoroethyl)(methyl)amino)ethyl)-N′-hydroxy-1H-imidazo[4,5-b]pyridine-7-carboximidamide], a half-maximal effect (EC50) was put at 3400 nM. In the case of `CNCCc1nc2nccc(/C(=N/O)Nc3ccc(F)c(Cl)c3)c2[nH]1` [Example 188, N-(3-Chloro-4-fluorophenyl)-N′-hydroxy-2-(2-(methylamino)ethyl)-1H-imidazo[4,5-b]pyridine-7-carboximidamide], the EC50 turned out to be 1510 nM. `NCCc1nc2nccc(/C(=N/O)Nc3ccc(F)c(Cl)c3)c2[nH]1` [Example 189, 2-(2-Aminoethyl)-N-(3-chloro-4-fluorophenyl)-N′-hydroxy-1H-imidazo[4,5-b]pyridine-7-carboximidamide] displayed an EC50 of 1780 nM. For the compound `COCCNCCc1nc2nccc(/C(=N/O)Nc3ccc(F)c(Cl)c3)c2[nH]1` [Example 190, N-(3-Chloro-4-fluorophenyl)-N′-hydroxy-2-(2-((2-methoxyethyl)amino)ethyl)-1H-imidazo[4,5-b]pyridine-7-carboximidamide], the response was half-maximal at 1510 nM (EC50). Consider `O/N=C(\Nc1ccc(F)c(Cl)c1)c1ccnc2nc(CCN3CCOCC3)[nH]c12` [Example 191, N-(3-Chloro-4-fluorophenyl)-N′-hydroxy-2-(2-morpholinoethyl)-1H-imidazo[4,5-b]pyridine-7-carboximidamide], for which a half-maximal effect (EC50) was put at 2820 nM. With `O/N=C(\Nc1ccc(F)c(Cl)c1)c1ccnc2nc(CCN3CCCCC3)[nH]c12` [Example 192, N-(3-Chloro-4-fluorophenyl)-N′-hydroxy-2-(2-(piperidin-1-yl)ethyl)-1H-imidazo[4,5-b]pyridine-7-carboximidamide], the EC50 amounted to 241 nM. The compound `O/N=C(\Nc1ccc(F)c(Cl)c1)c1ccnc2nc(CCN3CCCC3)[nH]c12` [Example 193, N-(3-Chloro-4-fluorophenyl)-N′-hydroxy-2-(2-(pyrrolidin-1-yl)ethyl)-1H-imidazo[4,5-b]pyridine-7-carboximidamide] had an EC50 of 358 nM. On to `COCCN(C)CCc1nc2nccc(/C(=N/O)Nc3ccc(F)c(Cl)c3)c2[nH]1` [Example 194, N-(3-Chloro-4-fluorophenyl)-N′-hydroxy-2-(2-((2-methoxyethyl)(methyl)amino)ethyl)-1H-imidazo[4,5-b]pyridine-7-carboximidamide], for which the EC50 is 504 nM. Turning to `CN(C)CC(O)c1nc2nccc(/C(=N/O)Nc3ccc(F)c(Cl)c3)c2[nH]1` (centres unmarked) [Example 195, N-(3-Chloro-4-fluorophenyl)-2-(2-(dimethylamino)-1-hydroxyethyl)-N′-hydroxy-1H-imidazo[4,5-b]pyridine-7-carboximidamide], the EC50 is 1160 nM.

`CC(C)CNCc1nc2nccc(/C(=N/O)Nc3ccc(F)c(Cl)c3)c2[nH]1` [Example 196, N-(3-Chloro-4-fluorophenyl)-N′-hydroxy-2-((isobutylamino)methyl)-1H-imidazo[4,5-b]pyridine-7-carboximidamide] showed an EC50 of 1330 nM. On to `Cn1cnc2c(/C(=N/O)Nc3ccc(F)c(Cl)c3)ccnc21` [Example 197, N-(3-Chloro-4-fluorophenyl)-N′-hydroxy-3-methyl-3H-imidazo[4,5-b]pyridine-7-carboximidamide], for which the EC50 was 5460 nM. Turning to `CN(C)CCCc1nc2c(F)c(F)cc(/C(=N/O)Nc3ccc(F)c(Cl)c3)c2[nH]1` [Example 199, N-(3-Chloro-4-fluorophenyl)-2-[3-(dimethylamino)propyl]-6,7-difluoro-N′-hydroxy-3H-benzimidazole-4-carboximidamide], the EC50 came to 4490 nM. Then `O/N=C(\Nc1ccc(F)c(Cl)c1)c1ccc(F)c2nc(NCCCN3CCOCC3)[nH]c12` [Example 200, N-(3-Chloro-4-fluorophenyl)-7-fluoro-N′-hydroxy-2-(3-morpholin-4-ylpropylamino)-3H-benzimidazole-4-carboximidamide], with 564 nM; and `CN(C)CCNc1nc2c(F)ccc(/C(=N/O)Nc3ccc(F)c(Cl)c3)c2[nH]1` [Example 201, N-(3-Chloro-4-fluorophenyl)-2-[2-(dimethylamino)ethylamino]-7-fluoro-N′-hydroxy-3H-benzimidazole-4-carboximidamide], with 428 nM; and `CN1CCCCC1CNc1nc2nccc(/C(=N/O)Nc3ccc(F)c(Cl)c3)c2[nH]1` (centres unmarked) [Example 202, N-(3-Chloro-4-fluorophenyl)-N′-hydroxy-2-[(1-methylpiperidin-2-yl)methylamino]-1H-imidazo[4,5-b]pyridine-7-carboximidamide], with 2090 nM. `CN1CCC(Nc2nc3nccc(/C(=N/O)Nc4ccc(F)c(Cl)c4)c3[nH]2)C1` (centres unmarked) [Example 203, N-(3-Chloro-4-fluorophenyl)-N′-hydroxy-2-[(1-methylpyrrolidin-3-yl)amino]-1H-imidazo[4,5-b]pyridine-7-carboximidamide] came in with an EC50 of 1340 nM. Take `CCNCCc1nc2nccc(/C(=N/O)Nc3ccc(F)c(Cl)c3)c2[nH]1` [Example 204, N-(3-chloro-4-fluorophenyl)-2-(2-(ethylamino)ethyl)-N′-hydroxy-3H-imidazo[4,5-b]pyridine-7-carboximidamide]: the EC50 amounted to 2190 nM.

On to `CC(C)NCCc1nc2nccc(/C(=N/O)Nc3ccc(F)c(Cl)c3)c2[nH]1` [Example 205, N-(3-chloro-4-fluorophenyl)-N′-hydroxy-2-(2-(isopropylamino)ethyl)-3H-imidazo[4,5-b]pyridine-7-carboximidamide], for which the response was half-maximal at 2820 nM (EC50). For the compound `CC(C)CNCCc1nc2nccc(/C(=N/O)Nc3ccc(F)c(Cl)c3)c2[nH]1` [Example 206, N-(3-chloro-4-fluorophenyl)-N′-hydroxy-2-(2-(isobutylamino)ethyl)-3H-imidazo[4,5-b]pyridine-7-carboximidamide], the EC50 amounted to 2300 nM.
